According to US20220174947A1, “ANTIMICROBIAL MIXTURE CONTAINING 4-(3-ETHOXY-4-HYDROXYPHENYL)BUTAN-2-ONE AND AN ALCOHOL COMPOUND, AND COSMETIC COMPOSITION CONTAINING SAME” (L'OREAL, priority 2018, published 2022):

How the values were obtained:
Experiment in all cases: Synergistic antimicrobial activity as MIC, 96-well microplate, optical density at 620 nm
Format in all cases: cell-based
Conditions in all cases: for microbial growth percentage: 0 A
[1] = system: Enterococcus faecalis ATCC 33186
Excerpt: (§1) FIC Index=(MIC of A with B/MIC of A)+(MIC of B with A/MIC of B [Math. 1]
(§2) with: • MIC of A with B: minimum concentration of product A in the combination A+B which makes it possible to obtain an inhibitory effect; • MIC of B with A: minimum concentration of product B in the combination A+B which makes it possible to obtain an inhibitory effect; • MIC of A: minimum inhibitory concentration of product A alone; • MIC of B: minimum inhibitory concentration of product B alone. This formula was described for the first time in the article by F. C. Kull, P. C. Eisman, H. D. Sylwestrowka, and R. L. Mayer, Applied Microbiology 9:538-541, 1961.
The microbial strain Enterococcus faecalis ATCC 33186 and a double-concentration BHI (Brain Heart Infusion) broth liquid culture medium were used.
(§3) A 96-well microplate at an incubation temperature of 32.5° C. is used.
(§4) The incubation time of the microplate is: • from 24 to 30 h under aerobic conditions for microbial Aspergillus niger ATCC 6275; • from 18 to 24 h under aerobic conditions for Candida albicans ATCC 10231, Pseudomonas aeruginosa ATCC 9027 and Staphylococcus aureus ATCC 6538; • from 24 to 48 h under aerobic conditions for Enterococcus faecalis ATCC 33186.
(§5) For each compound: A=4-(3-ethoxy-4-hydroxyphenyl) butan-2-one compound B=alcohol compound A 10% (weight/volume) stock solution was prepared by mixing 1 g of compound in 9 ml of aqueous 1% agar solution. Successive dilutions were made with the 1% agar solution.
(§6) 50 μl of each of the daughter solutions obtained containing compound A or B are added to the microplate wells. 100 μl of Sabouraud liquid nutrient broth inoculated at double concentration with the Aspergillus niger strain and 50 μl of aqueous 1% agar solution are also added thereto.
(§7) 50 μl of each of the daughter solutions obtained containing compound A and 50 μl of each of the daughter solutions obtained containing compound B are added to the microplate wells. 100 μl of Sabouraud liquid nutrient broth inoculated at double concentration with the strain Aspergillus niger are also added thereto.
(§8) A positive microbial growth control was also prepared. The positive microbial growth control corresponds to a mixture of 100 μl of aqueous 1% agar solution with 100 μl of Sabouraud liquid nutrient broth inoculated at double concentration with the strain Aspergillus niger in the absence of compounds A and B.
(§9) An absorbance control was performed in parallel on compounds A and B alone. This control corresponds to 100 μl of double concentration sterile Sabouraud liquid nutrient broth+100 μl of double concentration compound A or B.
(§10) In the three cases (absorbance control, growth control and test), the final volume present in each of the microplate wells is 200 μl.
(§11) The test as described above (tests, absorbance control and growth control) was performed again to test the combination A+B on the following strains Enterococcus faecalis, Staphylococcus aureus, Pseudomonas aeruginosa, Candida albicans, where appropriate.

[2] = system: Aspergillus niger ATCC 6275
Excerpt: as §1, §2
The microbial strain Aspergillus niger ATCC 6275, and a double-concentration Sabouraud broth liquid culture medium supplemented with polyoxyethylenated (20 OE) sorbitan monopalmitate (Tween 40 from Croda) and Phytagel© BioReagent were used (i.e. a mixture of 5 g of Phytagel+0.6 g of Tween 40+60 g of Sabouraud broth).
as §3, §4, §5, §6, §7, §8, §9, §10
In the two cases (test and control), the inoculum represents the concentration of the Aspergillus niger strain present in the final volume of the wells (200 μl) and is between 2 and 6×10^5 cfu/ml of Aspergillus niger.

[3] = system: Candida albicans ATCC 10231
Excerpt: with: • MIC of A with B: minimum concentration of product A in the combination A+B which makes it possible to obtain an inhibitory effect; • MIC of B with A: minimum concentration of product B in the combination A+B which makes it possible to obtain an inhibitory effect; • MIC of A: minimum inhibitory concentration of product A alone; • MIC of B: minimum inhibitory concentration of product B alone. This formula was described for the first time in the article by F. C. Kull, […], and R. L. Mayer, Applied Microbiology 9:538-541, 1961. […] When the FIC index value is less than or equal to 1, it is considered that the combination of test compounds has a synergistic effect. […] A 96-well microplate at an incubation temperature of 32.5° C. is used. […] For each compound: […] 50 μl of each of the daughter solutions obtained containing compound A and 50 μl of each of the daughter solutions obtained containing compound B are added to the microplate wells. 100 μl of Sabouraud liquid nutrient broth inoculated at double concentration with the strain Aspergillus niger are also added thereto. A positive microbial growth control was also prepared. […] An absorbance control was performed in parallel on compounds A and B alone. This control corresponds to 100 μl of double concentration sterile Sabouraud liquid nutrient broth+100 μl of double concentration compound A or B. […] The test as described above (tests, absorbance control and growth control) was performed again to test the combination A+B on the following strains Enterococcus faecalis, Staphylococcus aureus, Pseudomonas aeruginosa, Candida albicans, where appropriate.

[4] = system: Staphylococcus aureus ATCC 6538
Excerpt: as §1, §2
The microbial strain Staphylococcus aureus ATCC 6538 and a double-concentration nutrient broth liquid culture medium were used.
as §3, §4, §5, §6, §7, §8, §9, §10, §11

[5] = system: Pseudomonas aeruginosa ATCC 9027
Excerpt: with: • MIC of A with B: minimum concentration of product A in the combination A+B which makes it possible to obtain an inhibitory effect; • MIC of B with A: minimum concentration of product B in the combination A+B which makes it possible to obtain an inhibitory effect; • MIC of A: minimum inhibitory concentration of product A alone; • MIC of B: minimum inhibitory concentration of product B alone. This formula was described for the first time in the article by F. C. Kull, […], and R. L. Mayer, Applied Microbiology 9:538-541, 1961. […] When the FIC index value is less than or equal to 1, it is considered that the combination of test compounds has a synergistic effect. The microbial strain Pseudomonas aeruginosa ATCC 9027 and a double-concentration nutrient broth liquid culture medium were used. A 96-well microplate at an incubation temperature of 32.5° C. is used. […] For each compound: […] 50 μl of each of the daughter solutions obtained containing compound A and 50 μl of each of the daughter solutions obtained containing compound B are added to the microplate wells. 100 μl of Sabouraud liquid nutrient broth inoculated at double concentration with the strain Aspergillus niger are also added thereto. A positive microbial growth control was also prepared. […] An absorbance control was performed in parallel on compounds A and B alone. This control corresponds to 100 μl of double concentration sterile Sabouraud liquid nutrient broth+100 μl of double concentration compound A or B. […] The test as described above (tests, absorbance control and growth control) was performed again to test the combination A+B on the following strains Enterococcus faecalis, Staphylococcus aureus, Pseudomonas aeruginosa, Candida albicans, where appropriate.

[6] = Enterococcus faecalis, growth <= 25%
[7] = Aspergillus niger, growth <= 25%
[8] = Staphylococcus aureus, growth <= 25%

Question: Which microbial growth percentage ([1]; 0.125 B3 weight %) does the source give for sorbitan caprylate [B3] here?
Answer: The microbial growth percentage was 134%.

Question: And the microbial growth percentage ([1]; 0.25 B3 weight %)?
Answer: The microbial growth percentage was 61%.

Question: And the microbial growth percentage ([1]; 0.5 B3 weight %)?
Answer: The microbial growth percentage was 62%.

Question: And the microbial growth percentage ([1]; 1 B3 weight %)?
Answer: Its microbial growth percentage is 2%.

Question: What about the “% MIC of B3 alone” value [1, 6] of the same compound?
Answer: Its value is 1%.

Question: And the microbial growth percentage ([2]; 0.025 B3 weight %)?
Answer: The microbial growth percentage was 50%.

Question: What about the microbial growth percentage ([2]; 0.05 B3 weight %) of the same compound?
Answer: The microbial growth percentage was 30%.

Question: What about the microbial growth percentage ([2]; 0.1 B3 weight %) of the same compound?
Answer: Its microbial growth percentage is −2%.

Question: And the “% MIC of B3 alone” value [2, 7]?
Answer: Its value is 0.1%.

Question: For `CC(=O)c1ccc(O)cc1` [B1, 4-hydroxyacetophenone], which microbial growth percentage ([2]; 0.0625 B1 weight %) is on record?
Answer: The microbial growth percentage was 86%.

Question: And the microbial growth percentage ([2]; 0.125 B1 weight %)?
Answer: Its microbial growth percentage is 72%.

Question: And the microbial growth percentage ([2]; 0.25 B1 weight %)?
Answer: Its microbial growth percentage is 79%.

Question: And the microbial growth percentage ([2]; 0.5 B1 weight %)?
Answer: The microbial growth percentage was 6%.

Question: And the “% MIC of B1 alone” value [2, 7]?
Answer: Its value is 0.5%.

Question: How did the microbial growth percentage ([2]; 0.0625 B5 weight %) turn out when `Cc1cc(O)cc(C)c1Cl` [B5, 4-chloro-3,5-dimethylphenol] was run?
Answer: The microbial growth percentage was 99%.

Question: What about the microbial growth percentage ([2]; 0.125 B5 weight %) of the same compound?
Answer: The microbial growth percentage was 103%.

Question: And the microbial growth percentage ([2]; 0.25 B5 weight %)?
Answer: Its microbial growth percentage is 31%.

Question: What about the microbial growth percentage ([2]; 0.5 B5 weight %) of the same compound?
Answer: The microbial growth percentage was −6%.

Question: What about the “% MIC of B5 alone” value [2, 7] of the same compound?
Answer: Its value is 0.5%.

Question: What about the microbial growth percentage ([3]; 0.0625 B5 weight %) of the same compound?
Answer: The microbial growth percentage was 73%.

Question: What about the microbial growth percentage ([3]; 0.125 B5 weight %) of the same compound?
Answer: The microbial growth percentage was 28%.

Question: And the microbial growth percentage ([3]; 0.25 B5 weight %)?
Answer: Its microbial growth percentage is 1%.

Question: And the “% MIC of B5 alone” value ([3]; Candida albicans, growth <= 25%)?
Answer: Its value is 0.25%.

Question: What does the source list for `Oc1cc(Cl)ccc1Oc1ccc(Cl)cc1Cl` [B2, 5-chloro-2-(2,4-dichlorophenoxy)phenol]?
Answer: microbial growth percentage ([4]; 0.125 B2 weight %): 46%; microbial growth percentage ([4]; 0.25 B2 weight %): 14%; % MIC of B2 alone [4, 8]: 0.25%

Question: What does the source list for `CCCCCCCC(=O)OCC(O)CO` (centres unmarked) [B6, glyceryl caprylate]?
Answer: microbial growth percentage ([1]; 0.125 B6 weight %): 57%; microbial growth percentage ([1]; 0.25 B6 weight %): 22%; microbial growth percentage ([1]; 0.5 B6 weight %): 8%; microbial growth percentage ([1]; 0.625 B6 weight %): 38%; % MIC of B6 alone [1, 6]: 0.5%; microbial growth percentage ([4]; 0.0625 B6 weight %): 83%; microbial growth percentage ([4]; 0.125 B6 weight %): 87%; microbial growth percentage ([4]; 0.25 B6 weight %): 53%; microbial growth percentage ([4]; 0.5 B6 weight %): 48%; microbial growth percentage ([4]; 1 B6 weight %): 9%; % MIC of B6 alone [4, 8]: 1%; microbial growth percentage ([5]; 0.1 B6 weight %): 123%; microbial growth percentage ([5]; 0.2 B6 weight %): 109%; microbial growth percentage ([5]; 0.4 B6 weight %): −40%; % MIC of B6 alone ([5]; Pseudomonas aeruginosa, growth <= 25%): 0.4%
